From patent US10517889B2, “Modulators of SMAD7 expression” (Ionis Pharmaceuticals, Inc., priority 2017, dated 2019)
Where “and” joins values, the source holds several entries; their conditions need not be identical. Equal entries are not always repeated. Strand notation (5' to 3'): a small letter for the sugar, then the base; units joined by * are phosphorothioate-linked, units joined directly phosphodiester-linked; [ ] holds rarer units or linkages, { } end groups; capitals alone tell only the bases. k = constrained ethyl (cEt); [5mC] = 5-methylcytosine; d = 2'-deoxy (DNA)

How the values were obtained:
[1] = system: human SMAD7 mRNA; experiment: Dose-dependent inhibition of human SMAD7 mRNA expression in Hep3B cells (Example 3, Study 1 and 2); type: cell-based; details: electroporation; for % inhibition of SMAD7 mRNA expression: approximately 16 hours; for IC50: Study 2 (740-20000 nM)
In short: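 Hep3B cells, 20,000 per well, electroporated with antisense oligonucleotide at 0.31, 1.25, 5.00 or 20.00 μM (first series) or 0.74, 2.22, 6.67 or 20.00 μM (second series). After ~16 h, SMAD7 mRNA measured by RT-qPCR (RTS5062), normalised to RIBOGREEN total RNA. Percent inhibition vs untreated cells; IC50 derived.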

[2] = system: human SMAD7 mRNA; experiment: Antisense inhibition of human SMAD7 mRNA expression in Hep3B cells by 3-10-3 cEt gapmers, 10,000 nM, electroporation (Example 2); type: cell-based; details: approximately 24 hours
In short: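 Hep3B cells (20,000/well) were electroporated with 10,000 nM 3-10-3 cEt gapmer (16-mer, phosphorothioate, 5-methylcytosines) and harvested after about 24 h. SMAD7 mRNA quantified by RT-qPCR with primer probe set RTS5062, normalized to total RNA by RiboGreen; percent inhibition relative to untreated cells.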

[3] = 740 nM, Study 2, relative to untreated control cells
[4] = Hep3B cells, electroporation with 10,000 nM antisense oligonucleotide, SMAD7 mRNA by RT-PCR (RTS5062), relative to untreated control cells
[5] = Hep3B cells, electroporation, 10,000 nM antisense oligonucleotide, RTS5062, relative to untreated control cells
[6] = Hep3B cells, 10,000 nM antisense oligonucleotide, electroporation, RT-PCR primer probe set RTS5062, relative to untreated control cells
[7] = Hep3B cells, electroporation with 10,000 nM antisense oligonucleotide, RTS5062, percent inhibition of SMAD7 mRNA relative to untreated control cells

Substance	% inhibition of SMAD7 mRNA expression [1, 3] [%]	% inhibition of SMAD7 mRNA expression ([1]; 2220 nM, Study 2)	% inhibition of SMAD7 mRNA expression ([1]; 6670.0 nM, Study 2)	% inhibition of SMAD7 mRNA expression ([1]; 20000.0 nM, Study 2)	IC50 [1] [µM]	% Inhibition [2, 4] [%]	% inhibition of SMAD7 mRNA expression [2, 5] [%]	% Inhibition [2, 6] [%]	% Inhibition [2, 7] [%]	% inhibition of SMAD7 mRNA expression ([2]; Hep3B cells, electroporation with 10,000 nM antisense oligonucleotide, primer probe set RTS5062, relative to untreated control cells) [%]	% Inhibition ([2]; SMAD7 mRNA, Hep3B cells, 10,000 nM antisense oligonucleotide, electroporation, primer probe set RTS5062, relative to untreated control cells) [%]
830207 (kA*kG*kG*dT*dG*dA*d[5mC]*dT*d[5mC]*dA*dT*d[5mC]*dA*kG*kG*k[5mC]; antisense) [compound 830207]	49	74%	85%	93%	1	80					
799751 (antisense kG*kA*kG*d[5mC]*dT*dA*dA*dT*dG*dA*d[5mC]*dA*d[5mC]*kT*kG*kG) [compound 799751]	11	35%	69%	65%	10		60				
798824 (kG*kA*k[5mC]*dA*d[5mC]*dA*dG*dT*dA*dG*dA*dG*d[5mC]*k[5mC]*kT*k[5mC]; antisense) [compound 798824]	0	0%	7%	42%	4			74			
830097 (k[5mC]*k[5mC]*kA*dT*d[5mC]*dT*dA*dA*d[5mC]*dA*dA*d[5mC]*dA*kT*k[5mC]*k[5mC]; antisense) [compound 830097]	29	60%	78%	86%	1	68					
830044 (k[5mC]*kG*kA*dT*dT*dG*dG*d[5mC]*dA*dG*dG*dT*dT*kA*kA*kT; antisense) [compound 830044]	47	61%	80%	93%	10	60					
799544 (kT*kT*k[5mC]*dA*dA*d[5mC]*dA*dA*dG*dT*dT*d[5mC]*d[5mC]*k[5mC]*kT*kA; antisense) [compound 799544]	19	38%	54%	73%	4				72		
799673 (antisense k[5mC]*kT*kG*dA*dT*dT*dA*dA*d[5mC]*dT*dT*dT*d[5mC]*k[5mC]*kT*kT) [compound 799673]	29	66%	74%	86%	4		64				
798687 (antisense kG*kG*k[5mC]*dG*dA*dG*dG*dA*dG*dG*d[5mC]*dG*dA*kG*kG*kA) [compound 798687]	27	42%	60%	61%	7					64	
799429 (antisense k[5mC]*kA*k[5mC]*dA*dA*dG*dT*d[5mC]*dA*d[5mC]*dA*dA*d[5mC]*kT*kG*kG) [compound 799429]	24	50%	60%	63%	7	74					
830168 (antisense kA*kT*kG*d[5mC]*dT*dT*dT*dT*dA*d[5mC]*dA*d[5mC]*dA*k[5mC]*k[5mC]*k[5mC]) [compound 830168]	31	46%	65%	73%	3	81					
799631 (k[5mC]*k[5mC]*kA*dA*dA*dT*d[5mC]*dA*d[5mC]*dA*dA*dA*dG*k[5mC]*kA*kG; antisense) [compound 799631]	0	25%	49%	88%	3				82		
830208 (kA*kA*kG*dG*dT*dG*dA*d[5mC]*dT*d[5mC]*dA*dT*d[5mC]*kA*kG*kG; antisense) [compound 830208]	38	70%	79%	90%	1	57					
830099 (kG*k[5mC]*k[5mC]*dT*dT*dT*dG*dG*dA*dA*dT*dT*dA*kG*kT*kA; antisense) [compound 830099]	42	56%	70%	92%	10	79					
798931 (antisense kG*kA*kG*dG*dA*dA*dA*dA*dT*dA*dT*dT*dA*kG*k[5mC]*kA) [compound 798931]	0	43%	72%	83%	7			69			
830163 (antisense k[5mC]*kA*kA*d[5mC]*dT*dG*dA*dA*dG*dG*dT*dG*dA*k[5mC]*k[5mC]*k[5mC]) [compound 830163]	33	49%	73%	84%	2	60					
830170 (antisense kG*k[5mC]*kT*d[5mC]*dT*dG*dT*dT*dT*dG*dG*dA*d[5mC]*kA*kA*kG) [compound 830170]	1	39%	54%	67%	6	60					
799396 (antisense kT*kG*kT*dT*dA*d[5mC]*dA*dA*dA*dT*dA*d[5mC]*dA*kG*kA*kG) [compound 799396]		52% and 38%	72% and 70%	78% and 85%		69					66
799624 (kT*kG*kA*dA*dA*dG*dT*dA*d[5mC]*dA*dA*dT*d[5mC]*kT*k[5mC]*k[5mC]; antisense) [compound 799624]	2	50%	77%	89%	6				58		
799808 (antisense kG*k[5mC]*kT*dG*dA*dA*dA*dG*dA*dA*dA*dG*dT*k[5mC]*k[5mC]*k[5mC]) [compound 799808]	8	33%	52%	73%	10				70		
